molecular target: T1, Endothelial lipase (EL) (Homo sapiens, UniProt Q9Y5X9); assay: Endothelial lipase (EL) enzymatic assay with fluorescent substrate A10070 in DMPG vesicles; type: biochemical; settings: conditioned media from HT-1080 cells overexpressing endogenous EL; 20 min preincubation at 37° C.; read-out: EL IC50
T1 construct: HT-1080 cells, which were transformed by RAGE technology (Athersys) to overexpress endogenous EL; endogenous in cells; conditioned medium used as the enzyme source
T1 sequence (Q9Y5X9 21-500): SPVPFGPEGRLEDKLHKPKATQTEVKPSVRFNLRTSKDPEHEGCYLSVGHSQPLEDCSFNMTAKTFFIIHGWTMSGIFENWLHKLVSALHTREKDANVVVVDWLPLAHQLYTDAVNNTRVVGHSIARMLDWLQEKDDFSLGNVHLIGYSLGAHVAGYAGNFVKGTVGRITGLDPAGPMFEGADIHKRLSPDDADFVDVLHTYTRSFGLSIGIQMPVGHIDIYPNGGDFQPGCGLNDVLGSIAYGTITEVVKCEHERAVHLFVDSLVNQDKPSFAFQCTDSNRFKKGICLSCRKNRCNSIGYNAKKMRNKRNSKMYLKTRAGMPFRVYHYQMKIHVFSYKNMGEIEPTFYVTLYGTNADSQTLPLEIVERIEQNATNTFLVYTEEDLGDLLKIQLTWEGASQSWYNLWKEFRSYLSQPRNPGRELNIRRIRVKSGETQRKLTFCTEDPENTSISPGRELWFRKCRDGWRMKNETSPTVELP
Summary of the method: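 The enzyme source was conditioned medium from HT-1080 cells engineered to overexpress endogenous EL. It was preincubated with compound for 20 min at 37 °C in 50 mM HEPES pH 8.0, 50 mM NaCl, 1 mM CaCl2. Reactions started with DMPG vesicles carrying FRET substrate A10070 (mole fraction 0.05). The rate was taken from the linear slope of fluorescence (ex 488/em 530 nm) over 10 min.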

Q: With `Nc1c(C(=O)NC2CC=C(c3ccc(F)c(F)c3)CC2)[nH]c(=O)[nH]c1=O` (centres unmarked) [Example 202, 5-Amino-N-(4-(3,4-difluorophenyl)cyclohex-3-enyl)-2,6-dioxo-1,2,3,6-tetrahydropyrimidine-4-carboxamide] as the molecule, how does the IC50 read?
A: Its IC50 is 1.91 µM.

same assay, conditions: range observed in the EL assay; read-out: EL IC50 values

Q: `COc1ccc(C2CCC(NC(=O)c3[nH]c(=O)[nH]c(=O)c3N)C2)cc1` (centres unmarked) [Example 107, 5-amino-N-(3-(4-methoxyphenyl)cyclopentyl)-2,6-dioxo-1,2,3,6-tetrahydropyrimidine-4-carboxamide] was tested. Which IC50 did it give?
A: Its IC50 is no more than 10 µM.

Q: Which IC50 does the source give for `Nc1c(C(=O)N[C@@H]2CC[C@@H](C(=O)N[C@H]3CC[C@@H](c4cccc(C(F)(F)F)c4)CC3)C2)[nH]c(=O)[nH]c1=O` [Example 150, 5-amino-2,6-dioxo-N-((1R,3R)-3-(cis-4-(3-(trifluoromethyl)phenyl)cyclohexylcarbamoyl)cyclopentyl)-1,2,3,6-tetrahydropyrimidine-4-carboxamide] here?
A: The IC50 was no more than 10 µM.

Q: `COc1ccc2c(c1)CCCC2NC(=O)c1[nH]c(=O)[nH]c(=O)c1N` (single isomer, unassigned; enantiomer a) [Example 194, 5-amino-N-(6-methoxy-1,2,3,4-tetrahydronaphthalen-1-yl)-2,6-dioxo-1,2,3,6-tetrahydropyrimidine-4-carboxamide (Enantiomer A)] was tested. Which IC50 did it give?
A: The IC50 was no more than 10 µM.

Q: For `O=C(N[C@H]1CC[C@@H](c2cccc(C(F)(F)F)c2)CC1)c1[nH]c(=O)[nH]c(=O)c1O` [Example 257, 5-hydroxy-2,6-dioxo-N-((1s,4s)-4-(3-(trifluoromethyl)phenyl)cyclohexyl)-1,2,3,6-tetrahydropyrimidine-4-carboxamide], which IC50 is on record?
A: Its IC50 is no more than 10 µM.

Q: With `Nc1c(C(=O)NC2CC=C(c3ccc(F)c(F)c3)CC2)[nH]c(=O)[nH]c1=O` (centres unmarked) [Example 202, 5-Amino-N-(4-(3,4-difluorophenyl)cyclohex-3-enyl)-2,6-dioxo-1,2,3,6-tetrahydropyrimidine-4-carboxamide] as the molecule, how does the IC50 read?
A: The IC50 was no more than 10 µM.

Q: With `Nc1c(C(=O)N[C@H]2CC[C@@H](NC(=O)OCc3ccccc3)CC2)[nH]c(=O)[nH]c1=O` [Example 119, benzyl cis-4-(5-amino-2,6-dioxo-1,2,3,6-tetrahydropyrimidine-4-carboxamido)cyclohexylcarbamate] as the molecule, how does the IC50 read?
A: The IC50 was no more than 10 µM.

Q: How did the IC50 turn out when `O=C(N[C@H]1CC[C@@H](c2ccccc2)CC1)c1[nH]c(=O)[nH]c(=O)c1NCCc1c[nH]cn1` [Example 213, 5-(2-(1H-imidazol-4-yl)ethylamino)-2,6-dioxo-N-(cis-4-phenylcyclohexyl)-1,2,3,6-tetrahydropyrimidine-4-carboxamide] was run?
A: Its IC50 is no more than 10 µM.

Q: How did the IC50 turn out when `CC(C)CCNc1c(C(=O)N[C@H]2CC[C@@H](c3ccccc3)CC2)[nH]c(=O)[nH]c1=O` [Example 210, 5-(isopentylamino)-2,6-dioxo-N-(cis-4-phenylcyclohexyl)-1,2,3,6-tetrahydropyrimidine-4-carboxamide] was run?
A: Its IC50 is no more than 10 µM.

Q: Which IC50 does the source give for `Nc1c(C(=O)NC2CCCc3cc(OCC(F)(F)F)ccc32)[nH]c(=O)[nH]c1=O` (centres unmarked) [Example 22, 5-amino-2,6-dioxo-N-(6-(2,2,2-trifluoroethoxy)-1,2,3,4-tetrahydronaphthalen-1-yl)-1,2,3,6-tetrahydropyrimidine-4-carboxamide] here?
A: Its IC50 is no more than 10 µM.

Q: With `Nc1c(C(=O)N[C@@H]2CCc3c(Oc4ccccc4)cccc32)[nH]c(=O)[nH]c1=O` [Example 88, (R)-5-amino-2,6-dioxo-N-(4-phenoxy-2,3-dihydro-1H-inden-1-yl)-1,2,3,6-tetrahydropyrimidine-4-carboxamide] as the molecule, how does the IC50 read?
A: Its IC50 is no more than 10 µM.

Q: `COCCNc1c(C(=O)N[C@H]2CC[C@@H](c3ccccc3)CC2)[nH]c(=O)[nH]c1=O` [Example 214, 5-(2-methoxyethylamino)-2,6-dioxo-N-(cis-4-phenylcyclohexyl)-1,2,3,6-tetrahydropyrimidine-4-carboxamide] was tested. Which IC50 did it give?
A: Its IC50 is no more than 10 µM.

Q: How did the IC50 turn out when `O=C(N[C@@H]1CCCc2cc(OCC(F)(F)F)ccc21)c1[nH]c(=O)[nH]c(=O)c1O` [Example 256, (R)-5-hydroxy-2,6-dioxo-N-(6-(2,2,2-trifluoroethoxy)-1,2,3,4-tetrahydronaphthalen-1-yl)-1,2,3,6-tetrahydropyrimidine-4-carboxamide] was run?
A: Its IC50 is no more than 10 µM.

Q: Which IC50 does the source give for `Nc1c(C(=O)N[C@@H]2CCc3ccc(OCc4ccccc4)cc32)[nH]c(=O)[nH]c1=O` [Example 91, (R)-5-amino-N-(6-(benzyloxy)-2,3-dihydro-1H-inden-1-yl)-2,6-dioxo-1,2,3,6-tetrahydropyrimidine-4-carboxamide] here?
A: The IC50 was no more than 10 µM.

Q: `COc1ccc2c(c1)[C@@H](NC(=O)c1[nH]c(=O)[nH]c(=O)c1O)CCC2` [Example 265, (S)-5-hydroxy-N-(7-methoxy-1,2,3,4-tetrahydronaphthalen-1-yl)-2,6-dioxo-1,2,3,6-tetrahydropyrimidine-4-carboxamide] was tested. Which IC50 did it give?
A: The IC50 was no more than 10 µM.

Q: How did the IC50 turn out when `Nc1c(C(=O)N[C@@H]2CCC[C@@H]2c2ccc(Cl)cc2)[nH]c(=O)[nH]c1=O` [Example 64, 5-amino-N-((1R,2R)-2-(4-chlorophenyl)cyclopentyl)-2,6-dioxo-1,2,3,6-tetrahydropyrimidine-carboxamide] was run?
A: Its IC50 is no more than 10 µM.

Q: For `CCOC(=O)[C@H]1CCC[C@H]1NC(=O)c1[nH]c(=O)[nH]c(=O)c1N` [Example 61, (1S,2R)-ethyl 2-(5-amino-2,6-dioxo-1,2,3,6-tetrahydropyrimidine-4-carboxamido) cyclopentanecarboxylate], which IC50 is on record?
A: Its IC50 is no more than 10 µM.

Q: How did the IC50 turn out when `CC(C)Cn1c(=O)[nH]c(C(=O)N[C@H]2CC[C@@H](c3ccccc3)CC2)c(O)c1=O` [Example 253, 5-hydroxy-1-isobutyl-2,6-dioxo-N-((1s,4s)-4-phenylcyclohexyl)-1,2,3,6-tetrahydropyrimidine-4-carboxamide] was run?
A: Its IC50 is no more than 10 µM.

Q: `Nc1c(C(=O)N[C@H]2CCCc3ccccc32)[nH]c(=O)[nH]c1=O` [Example 10, (S)-5-amino-2,6-dioxo-N-(1,2,3,4-tetrahydronaphthalen-1-yl)-1,2,3,6-tetrahydropyrimidine-4-carboxamide] was tested. Which IC50 did it give?
A: The IC50 was no more than 10 µM.

Q: How did the IC50 turn out when `O=C(N[C@H]1CC[C@@H](c2ccccc2)CC1)c1[nH]c(=O)[nH]c(=O)c1NCc1ccncc1` [Example 227, 2,6-dioxo-N-(cis-4-phenylcyclohexyl)-5-(pyridin-4-ylmethylamino)-1,2,3,6-tetrahydropyrimidine-4-carboxamide] was run?
A: The IC50 was no more than 10 µM.
